Test system: mammary adenocarcinoma-17/Adr
Assay: Test E: R-enantiomer of compound 22b and compound 22a against early stage mammary adenocarcinoma-17/Adr
Type: in vivo
Description: Then, P.B.S. was added and the pH adjusted to 7 with HCl. A volume of 0.2 ml per injection was administered to animals intravenously. […] Then, P.B.S. was added and the pH was adjusted to 7 with HCl. A volume of 0.2 ml per injection was administered to animals intravenously.

[1] = Cage 6, IV 83 mg/kg/inj qd 1-4, total 332 mg/kg
[2] = Cage 7, IV 55 mg/kg/inj qd 1-4, total 220 mg/kg
[3] = Cage 7, IV 55 mg/kg/inj qd 1-4, total 220 mg/kg, listed as R-enantiomer of compound 22b
[4] = Cage 8 (one mouse), IV single bolus 124.5 mg/kg day 1

C[C@@H](Oc1ccc(Oc2ccc3ccc(Cl)cc3n2)cc1)C(=O)O [Compound R-22b, (R) 2-[4-(7-chloroquinolin-2-yloxy)phenoxy]propanoic acid]
Neuromuscular toxicity (Cage 6, IV 83 mg/kg/inj qd 1-4): neuromuscular toxicity was not produced
% Body Wt Loss at Nadir [1]: −17.5%
% T/C mass [1]: toxic
Activity Rating [1]: toxic
Cause of death [1]: GI-epithelial damage
Day of Nadir [1]: 6 days
Drug Deaths [1]: 5/5
Median Tumor Mass on day 9 (Range) [1]: toxic
Tumor Free day-23 [1]: 0/5
Drug Deaths (Cage 6, IV 83 mg/kg/inj qd 1-4, total 332 mg/kg, listed as R-enantiomer of compound 22b): killing all of the 5 mice
% Body Wt Loss at Nadir [2]: −23.4%
% T/C mass [2]: 0%
Activity Rating [2]: ++++ (>2.8)
Cause of death [2]: GI-epithelial damage (diarrhea) complicated with marrow toxicity
Day of Nadir [2]: 9 days
Day of full recovery of body weight [2]: 14 days
Day tumors reached 1000 mg (range) [2]: 22 (18-23) day
Drug Deaths [2]: 1/5
Growth Delay [2]: 13 days
Log Kill [2]: 3.3
Median Tumor Mass on day 9 (Range) [2]: 0 (all zeros) mg
Tumor Free day-23 [2]: 0/5
% Body Wt Loss at Nadir [3]: −23.4%
% T/C mass [3]: 0%
% Body Wt Loss at Nadir [4]: 0%
Activity Rating [4]: + (0.7-1.2)
Day of Nadir [4]: 9 days
Drug Deaths [4]: 0/1
Growth Delay [4]: 3 days
Log Kill [4]: 0.8
Median Tumor Mass on day 9 (Range) [4]: 340 (one mouse) mg
Neuromuscular toxicity [4]: no neuromuscular toxicity
Tumor Free day-23 [4]: 0/1
% T/C mass (Cage 8 (one mouse), IV single bolus 124.5 mg/kg day 1, 124.5 mg/kg): 35%
% T/C mass (Cage 8 (one mouse), IV single bolus 124.5 mg/kg day 1, listed as R-enantiomer of compound 22b, 124.5 mg/kg): 35%

— patent US7507749B2, “Antitumor agents” (priority 2001, dated 2009)
